Experimental data: US11957143B2, “Highly-soluble rebaudioside D” (SUNTORY HOLDINGS LIMITED, priority 2018, dated 2024)

Tests used:
Format in all cases: physicochemical
[1] = Moisture content of crystalline forms (FIG. 10); settings: sample heating 130° C. in N2, trace moisture analyzer
Experimental: The “moisture content” herein means the proportion of water contained in the crystal and is the proportion (wt %) of the weight of water based on the weight of the entire crystal. The moisture content of the crystal can be determined, for example, by heating the crystal at a high temperature (for example, 130° C.) under an inert atmosphere, and calculating from the change in weight between before and after the heating. The crystal of Reb. D of the present invention preferably has a moisture content of 0.1 wt % to 2.0 wt %, more preferably 0.2 wt % to 1.2 wt %, further preferably 0.40 wt % to 0.8 wt %.
The crystals of Reb. D in the crystalline form α and the crystalline form β and the control (in a stable form) were provided, and their moisture contents were compared. […] The devices and the conditions used for measuring the moisture contents are shown below.
Devices: • Trace moisture analyzer: CA-200, manufactured by Mitsubishi Chemical Analytech Co., Ltd. • Water vaporizer: VA-200 • Reagents: AQUAMICRON AX as anolyte and AQUAMICRON CXU as catholyte • Sample heating: 130° C. in an inert gas atmosphere (gas: N2, flow rate: 300 ml/min)

[2] = Turbidity (NTU) and amount dissolved 40 minutes after dissolution (FIG. 7); settings: 90 mg in 150 ml pure water at 7.5° C., 350 rpm, 40 minutes later, versus control
Experimental: The “turbidity (NTU)” herein means the degree of turbidity when the Reb. D is dissolved in water, and the lower the turbidity means that the Reb. D is dissolved better. The turbidity can be measured by a known method, for example, using an existing absorptiometer.
Then, the solubilities were evaluated under the conditions varied. The crystal in the crystalline form α used was obtained by maintaining at 55° C. for 2 hours, followed by appropriate N2 purge and then natural cooling in vacuo. The dissolution conditions, the conditions of turbidity (NTU) measurement, and the sample preparation conditions are shown below.
90 mg of Reb. D was added to 150 ml of pure water (equivalent to 300 mg/500 ml) at 7.5° C., followed by stirring at 350 rpm for dissolution. The degree of dissolution was checked 40 minutes later.
Conditions of Turbidity (NTU) Measurement:
30 ml was collected 40 minutes later, and the turbidity (NTU) was measured. The turbidity was measured with an absorptiometer (2100AN, manufactured by Hach Company) by turbidimetry using formazin as a standard solution.
(§1) Sample Preparation Conditions:
A 0.45-um filter was immersed in the solution for 6 seconds, and then a filtrate was obtained through the filter. 1 ml of the filtrate obtained was collected and diluted 10-fold with pure water.

[3] = Solubility of crystals of Reb. D, amount dissolved (FIG. 6); settings: 300 mg in pure water (150 ml) at 7.5° C., stirring at 200 rpm, 0.45-um filter
Experimental: The crystals of Reb. D in the crystalline form α and the crystalline form β and a control (commercially available Reb. D in a stable form) were provided, to compare their solubilities. The crystal in the crystalline form α used was obtained by maintaining Reb. D at 50° C. for 1 hour, followed by appropriate N2 purge, and the crystal in the crystalline form β used was obtained by maintaining Reb. D at 100° C. for 1.5 hours, followed by appropriate N2 purge and then overnight cooling at normal temperature. The conditions for dissolution and sample preparation are shown below.
300 mg of Reb. D was added to pure water (150 ml) at 7.5° C., followed by stirring at 200 rpm, for dissolution.
as §1
A 0.45-um filter was immersed in the solution for 30 seconds, and then a filtrate was obtained through the filter. 1 ml of the filtrate obtained was collected and diluted 10-fold with pure water.

[4] = Improvement in solubility by supplementary addition of crystal to saturated Reb. D solution (FIG. 9)
Experimental: Using the Reb. D in the crystalline form α, tests were conducted to confirm that the solubility of commercially available Reb. D was improved. […] First, commercially available Reb. D (in a stable form) was added to water to a saturated state. 24 hours later, the crystal of Reb. D in the crystalline form α was added to the saturated solution. Sampling was performed 24 hours later, 25 hours later, and 48 hours later, to check the amount of the Reb. D dissolved. […] D in the crystalline form α was added.

| SMILES | moisture content [1] | amount dissolved [2] | turbidity (NTU) [2] | amount dissolved as compared with the control (Cont) [3] | persistence of the increase in amount dissolved ([4]; 24 hours after the crystal was added to the saturated solution) | amount of Reb. D dissolved after addition of the crystal to a saturated solution of commercially available Reb. D ([4]; crystal added 24 hours after saturation with stable form) |
| --- | --- | --- | --- | --- | --- | --- |
| C=C1C[C@@]23CC[C@H]4[C@@](C)(CCC[C@@]4(C)C(=O)O[C@@H]4O[C@H](CO)[C@@H](O)[C@H](O)[C@H]4O[C@@H]4O[C@H](CO)[C@@H](O)[C@H](O)[C@H]4O)[C@@H]2CC[C@]1(O[C@@H]1O[C@H](CO)[C@@H](O)[C@H](O[C@@H]2O[C@H](CO)[C@@H](O)[C@H](O)[C@H]2O)[C@H]1O[C@@H]1O[C@H](CO)[C@@H](O)[C@H](O)[C@H]1O)C3 [control, rebaudioside D] | over 5 wt % | – | – | – | – | – |
| C=C1C[C@@]23CC[C@H]4[C@@](C)(CCC[C@@]4(C)C(=O)O[C@@H]4O[C@H](CO)[C@@H](O)[C@H](O)[C@H]4O[C@@H]4O[C@H](CO)[C@@H](O)[C@H](O)[C@H]4O)[C@@H]2CC[C@]1(O[C@@H]1O[C@H](CO)[C@@H](O)[C@H](O[C@@H]2O[C@H](CO)[C@@H](O)[C@H](O)[C@H]2O)[C@H]1O[C@@H]1O[C@H](CO)[C@@H](O)[C@H](O)[C@H]1O)C3 [crystalline form α, rebaudioside D] | 0.67 wt % | tended to increase | tended to be low | increased | the increase continued | further increased |
| C=C1C[C@@]23CC[C@H]4[C@@](C)(CCC[C@@]4(C)C(=O)O[C@@H]4O[C@H](CO)[C@@H](O)[C@H](O)[C@H]4O[C@@H]4O[C@H](CO)[C@@H](O)[C@H](O)[C@H]4O)[C@@H]2CC[C@]1(O[C@@H]1O[C@H](CO)[C@@H](O)[C@H](O[C@@H]2O[C@H](CO)[C@@H](O)[C@H](O)[C@H]2O)[C@H]1O[C@@H]1O[C@H](CO)[C@@H](O)[C@H](O)[C@H]1O)C3 [crystalline form β, rebaudioside D] | 0.37 wt % | – | – | increased | – | – |
